Measured values taken from PubChem BioAssay (NCI).
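Growth conditions: 96-well plates. Treatment: test compound, 48 hours, 5 concentrations. Analysis: linear interpolation between bracketing concentrations; unreached endpoints set to highest concentration. The concentration for 50% growth inhibition is given as GI50. TGI: total growth inhibition.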

Tests used:
Test in all cases: DTP human tumour cell line panel, 48 h
IGROV1 ovarian = system: IGROV1 ovarian
UO-31 renal = system: UO-31 renal
DU-145 prostate = system: DU-145 prostate
LOX IMVI melanoma = system: LOX IMVI melanoma
SF-295 CNS = system: SF-295 CNS
ACHN renal = system: ACHN renal
SNB-19 CNS = system: SNB-19 CNS
MDA-MB-435 = system: MDA-MB-435
NCI-H522 lung = system: NCI-H522 lung
SR leukemia = system: SR leukemia
SN12C renal = system: SN12C renal
U251 CNS = system: U251 CNS
K-562 leukemia = system: K-562 leukemia
M14 melanoma = system: M14 melanoma
SK-MEL-2 melanoma = system: SK-MEL-2 melanoma
SW-620 colon = system: SW-620 colon
RXF 393 renal = system: RXF 393 renal
UACC-62 melanoma = system: UACC-62 melanoma
TK-10 renal = system: TK-10 renal
NCI/ADR-RES ovarian = system: NCI/ADR-RES ovarian
SK-OV-3 ovarian = system: SK-OV-3 ovarian
PC-3 prostate = system: PC-3 prostate
MALME-3M melanoma = system: MALME-3M melanoma
HCC-2998 colon = system: HCC-2998 colon
NCI-H23 lung = system: NCI-H23 lung
SK-MEL-28 melanoma = system: SK-MEL-28 melanoma
HOP-62 NSCLC = system: HOP-62 NSCLC
MCF7 breast = system: MCF7 breast
HOP-92 NSCLC = system: HOP-92 NSCLC
A498 renal = system: A498 renal
SF-539 CNS = system: SF-539 CNS
MOLT-4 leukemia = system: MOLT-4 leukemia
HS 578T breast = system: HS 578T breast
A549 NSCLC = system: A549 NSCLC
MDA-MB-231 breast = system: MDA-MB-231 breast
HCT-116 colon = system: HCT-116 colon
SNB-75 CNS = system: SNB-75 CNS
OVCAR-8 ovarian = system: OVCAR-8 ovarian
NCI-H460 lung = system: NCI-H460 lung
OVCAR-5 ovarian = system: OVCAR-5 ovarian
SF-268 CNS = system: SF-268 CNS
COLO 205 colon = system: COLO 205 colon
NCI-H226 lung = system: NCI-H226 lung
HT29 colon = system: HT29 colon
RPMI-8226 leukemia = system: RPMI-8226 leukemia
CAKI-1 renal = system: CAKI-1 renal
BT-549 breast = system: BT-549 breast
SK-MEL-5 melanoma = system: SK-MEL-5 melanoma
OVCAR-4 ovarian = system: OVCAR-4 ovarian
786-0 renal = system: 786-0 renal
T-47D breast = system: T-47D breast
HL-60(TB) leukemia = system: HL-60(TB) leukemia
EKVX NSCLC = system: EKVX NSCLC
KM12 colon = system: KM12 colon
CCRF-CEM leukemia = system: CCRF-CEM leukemia
HCT-15 colon = system: HCT-15 colon
OVCAR-3 ovarian = system: OVCAR-3 ovarian

What does the source list for `COc1cccc(-c2cc(=O)c3ccc(C)nc3[nH]2)c1`?
TGI (IGROV1 ovarian): > 95.1 µM; TGI (UO-31 renal): > 100 µM; TGI (DU-145 prostate): 3.7 µM; TGI (LOX IMVI melanoma): > 100 µM; TGI (SF-295 CNS): > 100 µM; TGI (ACHN renal): > 100 µM; TGI (SNB-19 CNS): > 100 µM; TGI (MDA-MB-435): 0.0335 µM; TGI (NCI-H522 lung): > 100 µM; TGI (SR leukemia): 0.0503 µM; TGI (SN12C renal): > 100 µM; TGI (U251 CNS): > 100 µM; TGI (K-562 leukemia): 0.0656 µM; TGI (M14 melanoma): > 100 µM; TGI (SK-MEL-2 melanoma): > 100 µM; TGI (SW-620 colon): > 100 µM; TGI (RXF 393 renal): > 100 µM; TGI (UACC-62 melanoma): > 100 µM; TGI (TK-10 renal): > 100 µM; TGI (NCI/ADR-RES ovarian): > 100 µM; TGI (SK-OV-3 ovarian): > 60.6 µM; TGI (PC-3 prostate): > 42 µM; TGI (MALME-3M melanoma): > 100 µM; TGI (HCC-2998 colon): 2.12 µM; TGI (NCI-H23 lung): > 100 µM; TGI (SK-MEL-28 melanoma): > 100 µM; TGI (HOP-62 NSCLC): > 64.6 µM; TGI (MCF7 breast): > 22.9 µM; TGI (HOP-92 NSCLC): 3.85 µM; TGI (A498 renal): 2.34 µM; TGI (SF-539 CNS): 0.921 µM; TGI (MOLT-4 leukemia): > 94.7 µM; TGI (HS 578T breast): > 100 µM; TGI (A549 NSCLC): > 100 µM; TGI (MDA-MB-231 breast): > 100 µM; TGI (HCT-116 colon): > 38.1 µM; TGI (SNB-75 CNS): 0.0496 µM; TGI (OVCAR-8 ovarian): > 100 µM; TGI (NCI-H460 lung): > 100 µM; TGI (OVCAR-5 ovarian): > 100 µM; TGI (SF-268 CNS): > 89.7 µM; TGI (COLO 205 colon): 0.247 µM; TGI (NCI-H226 lung): 0.291 µM; TGI (HT29 colon): > 100 µM; TGI (RPMI-8226 leukemia): 1.78 µM; TGI (CAKI-1 renal): > 81.8 µM; TGI (BT-549 breast): > 39.7 µM; TGI (SK-MEL-5 melanoma): 2.47 µM; TGI (OVCAR-4 ovarian): > 100 µM; TGI (786-0 renal): > 100 µM; TGI (T-47D breast): > 100 µM; TGI (HL-60(TB) leukemia): 0.0532 µM; TGI (EKVX NSCLC): > 100 µM

What does the source list for `COC(=O)CCCCCN=Cc1c(O)c(O)c(C(C)C)c2cc(C)c(-c3c(C)cc4c(C(C)C)c(O)c(O)c(C=NCCCCCC(=O)OC)c4c3O)c(O)c12`?
GI50 (IGROV1 ovarian): 1.76 µM; TGI (IGROV1 ovarian): > 32.5 µM; GI50 (UO-31 renal): 1.24 µM; TGI (UO-31 renal): > 32.5 µM; GI50 (DU-145 prostate): 1.78 µM; TGI (DU-145 prostate): 21.1 µM; GI50 (LOX IMVI melanoma): 1.28 µM; TGI (LOX IMVI melanoma): 4.82 µM; GI50 (SF-295 CNS): 0.911 µM; TGI (SF-295 CNS): 5.34 µM; GI50 (ACHN renal): 1.42 µM; TGI (ACHN renal): > 32.5 µM; GI50 (SNB-19 CNS): 1.21 µM; TGI (SNB-19 CNS): > 32.5 µM; GI50 (MDA-MB-435): 1.82 µM; TGI (MDA-MB-435): > 32.5 µM; GI50 (NCI-H522 lung): 0.968 µM; TGI (NCI-H522 lung): 6.52 µM; GI50 (SR leukemia): 1.09 µM; TGI (SR leukemia): 9.61 µM; GI50 (SN12C renal): 1.3 µM; TGI (SN12C renal): > 32.5 µM; GI50 (U251 CNS): 1 µM; TGI (U251 CNS): 5.6 µM; GI50 (K-562 leukemia): 1.07 µM; TGI (K-562 leukemia): 6.03 µM; GI50 (M14 melanoma): 2.3 µM; TGI (M14 melanoma): 25.9 µM; GI50 (SK-MEL-2 melanoma): 2.2 µM; TGI (SK-MEL-2 melanoma): 28.7 µM; GI50 (SW-620 colon): 1.37 µM; TGI (SW-620 colon): > 32.5 µM; GI50 (RXF 393 renal): 0.851 µM; TGI (RXF 393 renal): 4.65 µM; GI50 (KM12 colon): 1.28 µM; TGI (KM12 colon): > 32.5 µM; GI50 (TK-10 renal): 1.15 µM; TGI (TK-10 renal): > 32.5 µM; GI50 (NCI/ADR-RES ovarian): 9.04 µM; TGI (NCI/ADR-RES ovarian): > 32.5 µM; GI50 (SK-OV-3 ovarian): 1.51 µM; TGI (SK-OV-3 ovarian): 20 µM; GI50 (PC-3 prostate): 1.03 µM; TGI (PC-3 prostate): > 32.5 µM; GI50 (MALME-3M melanoma): 2.45 µM; TGI (MALME-3M melanoma): > 32.5 µM; GI50 (HCC-2998 colon): 2.15 µM; TGI (HCC-2998 colon): > 32.5 µM; GI50 (NCI-H23 lung): 1.32 µM; TGI (NCI-H23 lung): > 32.5 µM; GI50 (SK-MEL-28 melanoma): 1.95 µM; TGI (SK-MEL-28 melanoma): > 32.5 µM; GI50 (CCRF-CEM leukemia): 0.946 µM; TGI (CCRF-CEM leukemia): 11.1 µM; GI50 (HOP-62 NSCLC): 1.35 µM; TGI (HOP-62 NSCLC): 28.1 µM; GI50 (MCF7 breast): 1.04 µM; TGI (MCF7 breast): 5.83 µM; GI50 (HOP-92 NSCLC): 0.797 µM; TGI (HOP-92 NSCLC): 2.88 µM; GI50 (A498 renal): 2.74 µM; TGI (A498 renal): > 32.5 µM; GI50 (SF-539 CNS): 1.6 µM; TGI (SF-539 CNS): > 32.5 µM; GI50 (MOLT-4 leukemia): 1.05 µM; TGI (MOLT-4 leukemia): 16.5 µM; GI50 (HS 578T breast): 1.68 µM; TGI (HS 578T breast): > 32.5 µM; GI50 (A549 NSCLC): 1.35 µM; TGI (A549 NSCLC): > 32.5 µM; GI50 (MDA-MB-231 breast): 1.36 µM; TGI (MDA-MB-231 breast): > 32.5 µM; GI50 (HCT-116 colon): 1.23 µM; TGI (HCT-116 colon): > 32.5 µM; GI50 (SNB-75 CNS): 2.55 µM; TGI (SNB-75 CNS): > 32.5 µM; GI50 (OVCAR-8 ovarian): 1.27 µM; TGI (OVCAR-8 ovarian): > 32.5 µM; GI50 (NCI-H460 lung): 1.28 µM; TGI (NCI-H460 lung): 8.42 µM; GI50 (HCT-15 colon): 1.55 µM; TGI (HCT-15 colon): > 32.5 µM; GI50 (SF-268 CNS): 1.51 µM; TGI (SF-268 CNS): > 32.5 µM; GI50 (COLO 205 colon): 1.18 µM; TGI (COLO 205 colon): 13.2 µM; GI50 (NCI-H226 lung): 3.15 µM; TGI (NCI-H226 lung): 19 µM; GI50 (HT29 colon): 1.29 µM; TGI (HT29 colon): > 32.5 µM; GI50 (RPMI-8226 leukemia): 0.946 µM; TGI (RPMI-8226 leukemia): 15.1 µM; GI50 (CAKI-1 renal): 6.17 µM; TGI (CAKI-1 renal): > 32.5 µM; GI50 (BT-549 breast): 3 µM; TGI (BT-549 breast): > 32.5 µM; GI50 (OVCAR-3 ovarian): 1.27 µM; TGI (OVCAR-3 ovarian): > 32.5 µM; GI50 (SK-MEL-5 melanoma): 4.46 µM; TGI (SK-MEL-5 melanoma): 12.6 µM; GI50 (OVCAR-4 ovarian): 1.05 µM; TGI (OVCAR-4 ovarian): > 32.5 µM; GI50 (786-0 renal): 1.77 µM; TGI (786-0 renal): 14.7 µM; GI50 (T-47D breast): 1.25 µM; TGI (T-47D breast): 29.4 µM; GI50 (HL-60(TB) leukemia): 1.09 µM; TGI (HL-60(TB) leukemia): 7.93 µM; GI50 (EKVX NSCLC): 1.18 µM; TGI (EKVX NSCLC): > 32.5 µM
